What was measured:
[1] = molecular target: GDP-bound HRAS wild-type protein (Homo sapiens, UniProt P01112); assay: Binding to HRAS by surface plasmon resonance (SPR), Single Cycle Kinetics; details: SPR KD ratio HRAS/KRAS, class symbols
[2] = molecular target: GDP-bound KRAS wild-type protein (Homo sapiens, UniProt P01116); assay: Binding to KRAS by surface plasmon resonance (SPR), Single Cycle Kinetics; details: SPR Single Cycle Kinetics, GDP-bound KRAS wild-type protein, 1:1 binding model; read-out: KRAS KD
Sequence of GDP-bound KRAS wild-type protein (P01116 whole entry): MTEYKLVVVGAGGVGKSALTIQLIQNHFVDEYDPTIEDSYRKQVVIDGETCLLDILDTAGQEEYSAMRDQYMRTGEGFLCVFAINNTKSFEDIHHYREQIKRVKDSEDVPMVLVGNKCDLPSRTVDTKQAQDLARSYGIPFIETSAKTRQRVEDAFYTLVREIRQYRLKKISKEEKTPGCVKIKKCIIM

[3] = molecular target: GDP-bound NRAS wild-type protein (Homo sapiens, UniProt P01111); assay: Binding to NRAS by surface plasmon resonance (SPR), Single Cycle Kinetics; details: SPR KD ratio NRAS/KRAS, class symbols
Sequence of GDP-bound NRAS wild-type protein (P01111 whole entry): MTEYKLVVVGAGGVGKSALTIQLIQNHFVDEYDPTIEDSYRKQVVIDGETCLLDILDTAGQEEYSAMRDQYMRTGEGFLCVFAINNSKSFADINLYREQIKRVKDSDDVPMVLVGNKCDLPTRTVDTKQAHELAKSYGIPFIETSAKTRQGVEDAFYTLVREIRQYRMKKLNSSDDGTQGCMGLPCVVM

Sequence of GDP-bound HRAS wild-type protein (P01112 whole entry): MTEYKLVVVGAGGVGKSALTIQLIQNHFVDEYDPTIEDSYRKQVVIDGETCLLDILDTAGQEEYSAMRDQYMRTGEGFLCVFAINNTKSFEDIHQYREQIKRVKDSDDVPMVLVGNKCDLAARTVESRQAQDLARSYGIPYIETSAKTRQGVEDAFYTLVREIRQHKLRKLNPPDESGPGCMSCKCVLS

Compound	HRAS/KRAS (ratio of KD value with respect to GDP-bound HRAS wild-type protein to KD value with respect to KRAS) [1]	Kd [2] [pM]	NRAS/KRAS (ratio of KD value with respect to GDP-bound NRAS wild-type protein to KD value with respect to KRAS) [3]
CCC[C@H]1C(=O)N[C@@H]([C@@H](C)CC)C(=O)N(C)CC(=O)N(C)[C@H]2C/C=C\CCN(C2=O)[C@@H](Cc2ccc(C)cc2)C(=O)N(C)CC(=O)N[C@@H](CCc2ccc3sc(F)c(C)c3c2)C(=O)N2C[C@H](OCC)C[C@H]2C(=O)NC2(CC(C)(C)C2)C(=O)N(C)[C@@H](C(CC)CC)C(=O)N(C)[C@H](C(=O)N(C)C)CC(=O)N1C [PP2894]	A (a compound having 10 or more and less than 20 is denoted as A)	310	AA (a compound having 20 or more is denoted as AA)
CCC[C@H]1C(=O)N[C@@H]([C@@H](C)CC)C(=O)N(C)CC(=O)N(C)[C@H]2C/C=C\CCN(C2=O)[C@@H](Cc2ccc(C)cc2)C(=O)N(C)CC(=O)N[C@@H](CCc2ccc3c(C)c(C)n(C)c3c2)C(=O)N2C[C@H](OCC)C[C@H]2C(=O)NC2(CC(C)(C)C2)C(=O)N(C)[C@@H](C2CCCC2)C(=O)N(C)[C@H](C(=O)N(C)C)CC(=O)N1C [PP2895]	A (a compound having 10 or more and less than 20 is denoted as A)	3200	A (a compound having 10 or more and less than 20 is denoted as A)
CCC[C@H]1C(=O)N[C@@H]([C@@H](C)CC)C(=O)N(C)CC(=O)N(C)[C@H]2C/C=C\CCN(C2=O)[C@@H](Cc2ccc(C(F)(F)F)cc2)C(=O)N(C)CC(=O)N[C@@H](CCc2ccc3c(C)cn(C)c3c2)C(=O)N2C[C@H](OCC)C[C@H]2C(=O)NC2(CC(C)(C)C2)C(=O)N(C)[C@@H](C2CCCC2)C(=O)N(C)[C@H](C(=O)N(C)C)CC(=O)N1C [PP2897]	B (a compound having 3 or more and less than 10 is denoted as B)	560	A (a compound having 10 or more and less than 20 is denoted as A)
CCC[C@H]1C(=O)N[C@@H]([C@@H](C)CC)C(=O)N(C)CC(=O)N(C)[C@H]2C/C=C\CCN(C2=O)[C@@H](Cc2ccc(C)cc2)C(=O)N(C)CC(=O)N[C@@H](CCc2cc(Cl)c3c(ccn3C)c2)C(=O)N2C[C@H](OCC)C[C@H]2C(=O)NC2(CC(C)(C)C2)C(=O)N(C)[C@@H](C(CC)CC)C(=O)N(C)[C@H](C(=O)N(C)C)CC(=O)N1C [PP2898]	A (a compound having 10 or more and less than 20 is denoted as A)	4800	A (a compound having 10 or more and less than 20 is denoted as A)
CCC[C@H]1C(=O)N[C@@H]([C@@H](C)CC)C(=O)N(C)CC(=O)N(C)[C@H]2C/C=C\CCN(C2=O)[C@@H](Cc2ccc(C)cc2)C(=O)N(C)CC(=O)N[C@@H](CCc2ccc3c(C)cn(C)c3c2)C(=O)N2C[C@H](OCC)C[C@H]2C(=O)NC2(CC(C)(C)C2)C(=O)N(C)[C@@H](C2CCCC2)C(=O)N(C)[C@H](C(=O)N(C)C)CC(=O)N1C [PP2899]	B (a compound having 3 or more and less than 10 is denoted as B)	850	A (a compound having 10 or more and less than 20 is denoted as A)
CCC[C@H]1C(=O)N[C@@H]([C@@H](C)CC)C(=O)N(C)CC(=O)N(C)[C@H]2C/C=C\CCN(C2=O)[C@@H](Cc2ccc(C(F)(F)F)cc2)C(=O)N(C)CC(=O)N[C@@H](CCc2ccc3sc(C)c(C)c3c2)C(=O)N2C[C@H](OCC)C[C@H]2C(=O)NC2(CC(C)(C)C2)C(=O)N(C)[C@@H](C(CC)CC)C(=O)N(C)[C@H](C(=O)N(C)C)CC(=O)N1C [PP2900]	A (a compound having 10 or more and less than 20 is denoted as A)	440	AA (a compound having 20 or more is denoted as AA)
CCC[C@H]1C(=O)N[C@@H]([C@@H](C)CC)C(=O)N(C)CC(=O)N(C)[C@H]2C/C=C\CCN(C2=O)[C@@H](Cc2ccc(C(F)(F)F)cc2)C(=O)N(C)CC(=O)N[C@@H](CCc2ccc3ccn(C)c3c2)C(=O)N2C[C@H](OCC)C[C@H]2C(=O)NC2(CC(C)(C)C2)C(=O)N(C)[C@@H](C2CCCC2)C(=O)N(C)[C@H](C(=O)N(C)C)CC(=O)N1C [PP2901]	A (a compound having 10 or more and less than 20 is denoted as A)	3100	A (a compound having 10 or more and less than 20 is denoted as A)
CCC[C@H]1C(=O)N[C@@H]([C@@H](C)CC)C(=O)N(C)CC(=O)N(C)[C@H]2C/C=C\CCN(C2=O)[C@@H](Cc2ccc(C)cc2)C(=O)N(C)CC(=O)N[C@@H](CCc2ccc3sc(C)c(C)c3c2)C(=O)N2C[C@H](OCC)C[C@H]2C(=O)NC2(CC(C)(C)C2)C(=O)N(C)[C@@H](C(CC)CC)C(=O)N(C)[C@H](C(=O)N(C)C)CC(=O)N1C [PP2902]	A (a compound having 10 or more and less than 20 is denoted as A)	710	AA (a compound having 20 or more is denoted as AA)
C#CC[C@H]1C(=O)N[C@@H]([C@@H](C)CC)C(=O)N(C)CC(=O)N(C)[C@H]2C/C=C\CCN(C2=O)[C@@H](Cc2ccc(C(F)(F)F)cc2)C(=O)N(C)CC(=O)N[C@@H](CCc2ccc(C(F)(F)F)c(OC)c2)C(=O)N2CCOC[C@H]2C(=O)NC2(CC(C)(C)C2)C(=O)N(C)[C@@H](C2CCCC2)C(=O)N(C)[C@H](C(=O)N(C)C)CC(=O)N1C [PP2905]	A (a compound having 10 or more and less than 20 is denoted as A)	240	AA (a compound having 20 or more is denoted as AA)
CC[C@H](C)[C@@H]1NC(=O)[C@H](COC)N(C)C(=O)C[C@@H](C(=O)N(C)C)N(C)C(=O)[C@H](C2CCCC2)N(C)C(=O)C2(CC(C)(C)C2)NC(=O)[C@@H]2CCCCN2C(=O)[C@H](CCc2cc(F)c(C(F)(F)F)c(F)c2)NC(=O)CN(C)C(=O)[C@H](Cc2ccc(C(F)(F)F)cc2)N2CC/C=C\C[C@@H](C2=O)N(C)C(=O)CN(C)C1=O [PP2907]	A (a compound having 10 or more and less than 20 is denoted as A)	230	AA (a compound having 20 or more is denoted as AA)
CCC[C@H]1C(=O)N[C@@H]([C@@H](C)CC)C(=O)N(C)CC(=O)N(C)[C@H]2C/C=C\CCN(C2=O)[C@@H](Cc2ccc(C(F)(F)F)cc2)C(=O)N(C)CC(=O)N[C@@H](CCc2ccc3c(C)cn(C)c3c2)C(=O)N2C[C@H](OCC)C[C@H]2C(=O)NC2(CC(C)(C)C2)C(=O)N(C)[C@@H](C(CC)CC)C(=O)N(C)[C@H](C(=O)N(C)C)CC(=O)N1C [PP2908]	A (a compound having 10 or more and less than 20 is denoted as A)	1500	AA (a compound having 20 or more is denoted as AA)

Source: US20240158446A1, “CYCLIC COMPOUND HAVING SELECTIVE INHIBITORY ACTION ON KRAS OVER HRAS AND NRAS” (CHUGAI SEIYAKU KABUSHIKI KAISHA, priority 2021, published 2024)
